Data reported in ChEMBL document CHEMBL5338706, “Discovery of a potent and selective proteolysis targeting chimera (PROTAC) degrader of NSD3 histone methyltransferase” (Eur J Med Chem, 2022).
Active and inactive are the calls of the source. The calls are words filed in the database; no cut-off is given here.

Assays:
[1] = biological target: T1, Histone-lysine N-methyltransferase NSD2 (Homo sapiens) (UniProt O96028); experiment: Induction of NSD2 degradation in human NCI-H1703 cells at 3 to […] incubated for 72 hrs by Western blot analysis; type: cell-based; conditions: dose 3-7.5 µM
T1 sequence (whole entry): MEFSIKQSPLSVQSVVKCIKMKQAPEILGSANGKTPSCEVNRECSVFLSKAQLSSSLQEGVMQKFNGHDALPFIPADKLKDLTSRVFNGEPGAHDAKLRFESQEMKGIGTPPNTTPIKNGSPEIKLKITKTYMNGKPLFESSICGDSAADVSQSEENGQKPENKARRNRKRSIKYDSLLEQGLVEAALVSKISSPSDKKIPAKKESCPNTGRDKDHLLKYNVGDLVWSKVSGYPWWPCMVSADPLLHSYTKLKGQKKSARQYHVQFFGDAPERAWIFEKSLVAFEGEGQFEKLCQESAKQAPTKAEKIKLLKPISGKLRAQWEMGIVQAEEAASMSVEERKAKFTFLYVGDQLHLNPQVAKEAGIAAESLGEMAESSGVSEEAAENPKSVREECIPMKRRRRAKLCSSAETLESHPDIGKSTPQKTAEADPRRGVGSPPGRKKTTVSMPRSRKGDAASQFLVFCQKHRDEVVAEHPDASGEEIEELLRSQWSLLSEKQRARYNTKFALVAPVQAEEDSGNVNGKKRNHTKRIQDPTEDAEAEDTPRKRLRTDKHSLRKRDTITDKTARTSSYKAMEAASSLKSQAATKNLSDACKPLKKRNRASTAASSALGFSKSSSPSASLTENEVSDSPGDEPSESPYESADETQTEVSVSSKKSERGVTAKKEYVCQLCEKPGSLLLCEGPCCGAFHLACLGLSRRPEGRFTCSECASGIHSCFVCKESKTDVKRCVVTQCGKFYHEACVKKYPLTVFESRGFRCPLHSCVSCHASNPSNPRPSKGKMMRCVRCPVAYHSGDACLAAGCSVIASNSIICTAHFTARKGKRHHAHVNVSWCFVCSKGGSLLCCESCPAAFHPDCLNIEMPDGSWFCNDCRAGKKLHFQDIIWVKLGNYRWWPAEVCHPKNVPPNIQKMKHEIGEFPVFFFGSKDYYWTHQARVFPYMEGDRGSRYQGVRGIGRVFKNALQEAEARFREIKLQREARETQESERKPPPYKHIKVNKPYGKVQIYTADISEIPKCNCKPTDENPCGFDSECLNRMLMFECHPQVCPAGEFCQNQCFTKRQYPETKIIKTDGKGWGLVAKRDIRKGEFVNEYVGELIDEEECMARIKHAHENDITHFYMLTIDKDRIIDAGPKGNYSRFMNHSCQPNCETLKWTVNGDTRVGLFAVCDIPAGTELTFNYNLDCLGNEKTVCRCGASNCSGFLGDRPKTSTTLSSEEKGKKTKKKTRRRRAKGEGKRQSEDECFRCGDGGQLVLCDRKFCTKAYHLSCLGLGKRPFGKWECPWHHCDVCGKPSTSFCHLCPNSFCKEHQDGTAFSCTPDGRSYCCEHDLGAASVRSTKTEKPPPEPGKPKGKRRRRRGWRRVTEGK

[2] = system: NCI-H1703; experiment: Induction of apoptosis in human NCI-H1703 cells assessed as decrease in Bcl-XL protein expression at […] by measuring fold change by Western blot analysis relative to control; type: functional; conditions: dose 7.5 µM
[3] = Downregulation of Cyclin D1 level in human NCI-H520 cells at […] by measuring fold change by Western blot analysis relative to control; type: functional; conditions: dose 7.5 µM
[4] = biological target: T2, Histone-lysine N-methyltransferase NSD3 (Homo sapiens) (UniProt Q9BZ95); experiment: Induction of NSD3 degradation in human NCI-H1703 cells at 0.001 to 10 uM by Western blot analysis; type: cell-based; conditions: dose 0.001-10 µM, time <= 72.0 hrs, TDE = time-dependent effect
T2 sequence (whole entry): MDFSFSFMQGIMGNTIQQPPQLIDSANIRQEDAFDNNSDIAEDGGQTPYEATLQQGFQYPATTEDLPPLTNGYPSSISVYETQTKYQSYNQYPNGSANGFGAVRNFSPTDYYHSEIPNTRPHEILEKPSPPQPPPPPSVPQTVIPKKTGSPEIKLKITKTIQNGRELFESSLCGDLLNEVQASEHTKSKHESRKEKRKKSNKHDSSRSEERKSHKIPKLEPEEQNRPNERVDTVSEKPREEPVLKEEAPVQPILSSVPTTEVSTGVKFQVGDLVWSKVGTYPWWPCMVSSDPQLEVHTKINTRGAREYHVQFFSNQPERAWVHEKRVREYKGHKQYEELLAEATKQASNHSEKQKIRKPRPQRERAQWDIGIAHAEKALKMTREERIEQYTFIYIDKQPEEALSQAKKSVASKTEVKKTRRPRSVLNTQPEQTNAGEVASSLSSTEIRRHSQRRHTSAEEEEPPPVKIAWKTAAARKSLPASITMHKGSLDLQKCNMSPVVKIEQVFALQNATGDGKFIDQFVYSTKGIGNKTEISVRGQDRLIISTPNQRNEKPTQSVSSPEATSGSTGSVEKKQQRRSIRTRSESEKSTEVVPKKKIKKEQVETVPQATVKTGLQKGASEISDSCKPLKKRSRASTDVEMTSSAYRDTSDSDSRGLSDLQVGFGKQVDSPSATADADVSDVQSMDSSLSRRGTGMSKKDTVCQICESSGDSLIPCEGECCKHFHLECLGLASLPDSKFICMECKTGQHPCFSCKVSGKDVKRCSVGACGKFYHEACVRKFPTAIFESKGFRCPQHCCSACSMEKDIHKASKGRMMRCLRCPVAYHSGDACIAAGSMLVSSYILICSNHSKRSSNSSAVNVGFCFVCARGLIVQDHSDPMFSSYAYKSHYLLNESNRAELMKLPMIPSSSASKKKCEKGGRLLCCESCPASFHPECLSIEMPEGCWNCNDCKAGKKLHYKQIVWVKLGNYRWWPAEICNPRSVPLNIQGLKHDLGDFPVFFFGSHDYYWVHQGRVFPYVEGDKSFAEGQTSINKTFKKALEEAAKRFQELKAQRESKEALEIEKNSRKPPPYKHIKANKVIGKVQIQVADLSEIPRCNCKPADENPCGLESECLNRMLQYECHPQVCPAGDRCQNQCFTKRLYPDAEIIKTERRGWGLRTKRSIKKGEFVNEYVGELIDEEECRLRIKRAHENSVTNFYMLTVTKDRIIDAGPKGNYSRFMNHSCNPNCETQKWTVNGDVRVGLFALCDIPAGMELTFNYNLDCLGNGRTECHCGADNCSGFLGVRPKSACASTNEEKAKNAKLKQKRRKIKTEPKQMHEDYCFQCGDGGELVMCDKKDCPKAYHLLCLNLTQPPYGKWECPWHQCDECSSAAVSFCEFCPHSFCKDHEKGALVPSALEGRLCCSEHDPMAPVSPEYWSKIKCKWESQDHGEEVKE

[5] = system: NCI-H1703; experiment: Induction of apoptosis in human NCI-H1703 cells assessed as early apoptotic cells at […] measured after 72 hrs by PI/Annexin-V staining based flow cytometry analysis (reference value: 1.47% ); type: functional; conditions: dose 7.5 µM

Activity [1]: inactive | Activity [4]: Tde
SMILES: Cc1cc(CNCCCCCCCCCCC(=O)N[C@H](C(=O)N2C[C@H](O)C[C@H]2C(=O)N[C@@H](C)c2ccc(-c3scnc3C)cc2)C(C)(C)C)cc(C)c1-c1ncn(C)c1-c1ccnc2cc(F)ccc12
fold change (FC) [2]: 0.67 | fold change (FC) [3]: 0.62 | Activity [5]: 3.68%
